Results on five compounds are retold here after US10399931B2, “Octahydroanthracene compound, preparation method and application thereof” (SHANDONG XINHUA PHARMACEUTICAL CO., LTD., priority 2016, dated 2019).

SMILES strings stand for the structures. Read-outs that look alike come from different tables or passages of the source. Some results are limits rather than exact numbers.

For data set [1], the system named is Human cutaneous T-cell lymphoma Hut102 cells. In words: MTT assay, proliferation of human cutaneous T-cell lymphoma Hut102 cells. Type of data set: cell-based. On the procedure:
(§1) The survival rate of cells was determined by MTT assay, which is based on the metabolic reduction of 3-(4,5-dimethyl-2thiahiazoyl)-3,5-di-phenyl-tetrazolium bromide (MTT) by viable cells. MTT is a yellow compound, a dye that accepts hydrogen ion, which can act on the respiratory chain in the mitochondria of viable cells. Under the action of succinate dehydrogenase and cytochrome C, the tetrazolium ring was cleaved to form blue Formazan crystals, and the amount of Formazan crystals generated was only proportional to the number of the viable cells. The enzymes disappeared in dead cells, so Formazan crystals could not be dissolved in MTT solution containing 20% sodium dodecyl sulfate (pH 4.7).
(§2) The cells in the logarithmic growth phase were selected and adjusted to an appropriate cell density, seeded in a 96-well plate, 100 μl/well, and cultured in a 37° C., 5% CO2 incubator. The cells were allowed to adhere overnight, then the culture medium was replaced and the drug was added to cultivate for 48 h. A blank control group, a drug administration group and a positive control group were set, with four repeats in each group.
(§3) After 48 h of drug treatment, the cells were incubated with 0.25 mg/ml MTT at 37° C. for 3-4 h, and 100 μl of dimethyl sulfoxide (DMSO) was added to each well after aspirating the culture solution.
A general note: Tetrazolium assays rely on reduction of a dye to a coloured formazan, in cell work by metabolically active cells.

The test system of the next data set is RXR. In words: Verification of RXR target, dual-luciferase reporter in transfected 293T cells. Type of data set: cell-based, Human. The following applies: 20 nM, 48 h; for Relative activity (RXR): relative to CON = 1; for Flu (firefly luciferase signal) / Flu/Rlu / Rlu (Renilla luciferase signal): transfected 293T cells.
The test system of data set [2] is Human leukemia HL60 cells. Kind of data set: MTT assay, proliferation of human leukemia HL60 cells. Type of data set: cell-based. The following applies: for IC50: read-out: IC50 against HL60 cells. On the procedure: as §1, §2, §3
A further data set relates to HDAC. In words: Verification of HDAC target, HDAC fluorometric activity assay on A549 cell lysate. The following applies: 20 μM, Mean.
The subject of data set [3] is APP/PS1 transgenic mice. In words: Nesting experiment. Type of data set: in vivo. The following applies: 100 mg/kg, at 12 h. An excerpt:
Each mouse was separately housed in a cage. On the first day of the test, two pieces of cotton (5 cm×5 cm) were placed in the cage. […]

Data set [4] deals with APP/PS1 transgenic mice. Kind of data set: Morris water maze test (oriented navigation and probe test). Type of data set: in vivo. To be noted: 100 mg/kg. The method, then: The drugs were administered three days after the adaptive feeding. Peanut oil was used as the solvent. The drug was intragastric administered once a day for 15 days. On the 6th to 9th day after the administration, the new object identification test was performed. On the 10th day, the Y-maze test was performed. On the 11th to 15th day, the Morris water maze test was performed to determine the improvement of learning and memory. The administration of the drugs was continued during the behavioral experiment until the animals were sacrificed (16th day).
The experimental device includes a black circular pool with a diameter of 100 cm and a height of 40 cm, and a white platform (safe platform) having a diameter of about 10 cm. The location of the safe platform could be moved. Morris Water Maze Video Detection and Analysis System was provided by the Institute of Materia Medica, China Academy of Medical Sciences. One day before the experiment, water was injected into the black circular pool (water temperature 22±1° C.), and white pigment was added to mix uniformly. The water surface was usually about 1 cm higher than the top of the safe platform. The pool was divided into four quadrants I, II, III and IV, and the safe platform was usually placed in the middle of the quadrant IV. The experiment was divided into two parts: (1) Oriented navigation: the animal grouping was input into a computer software in advance. The position of the safe platform was kept unchanged during the experiment. During the test, the experimental animal facing the pool wall was placed in the water from different inlets, and the computer simultaneously collected data and recorded the time to find the safe platform (escape latency). Data collection automatically stopped when the animal stayed on the safe platform for 10 s. The data acquisition time of the mouse was 60 s. If the animal could not find the safe platform within the specified time, the escape latency was recorded as 60 s. At the same time, the operator induced the animal to reach the safe platform and stay for 10 s. The animal was trained twice a day for 4 consecutive days. (2) Probe test: after the oriented navigation test is completed, the safe platform is removed and the animal was placed in the pool free to explore for 60 s. The camera system automatically recorded the time and distance of the experimental animal swimming in the quadrant of the safe platform within the specified time and the number of times passing through the location of the safe platform.

The mark [5] stands for this setting: HuT-102, 10 μM, Mean ± SE, read-out: Inhibitive rate (%) against Hut102 cells.
[6] abbreviates: Homo sapiens, HL-60, 0.01 μmol/L, Mean ± SE, read-out: Inhibitive rate (%) against HL60 cells.
Setting [7] is: Homo sapiens, HL-60, 0.1 μmol/L, Mean ± SE, read-out: Inhibitive rate (%) against HL60 cells.
[8] abbreviates: Homo sapiens, HL-60, 1 μmol/L, Mean ± SE, read-out: Inhibitive rate (%) against HL60 cells.
[9] abbreviates: Homo sapiens, HL-60, 10 μmol/L (rescreening), Mean ± SE, read-out: Inhibitive rate (%) against HL60 cells.
[10] abbreviates: Homo sapiens, HL-60, read-out: Inhibitive rate (%) against HL60 cells.
Setting [11] is: Homo sapiens, HL-60, 48 h, 10 μM, 48 h, Mean ± SE, read-out: Inhibitive rate (%) against HL60 cells.
Setting [12] is: Homo sapiens, HL-60, 48 h, MTT, 48 h.

Experimental for HDAC: All the compounds were prepared into mother liquors with the same concentration (100 mmol/L) and stored at a temperature of −20° C. […] The DMSO sample was tested at a final concentration of 1%.
A substrate containing an acetylated lysine chain was added to the sample (cell lysate buffer), and the active HDAC in the sample deacetylated the lysine chain on the substrate to activate the substrate. Further, a lysine luminescent reagent is added to generate fluorescence, and the signal was recorded by a microplate reader to indicate the activity of HDAC in the sample.
2) Detection Method • a) Dissolving 50 μg untreated A549 cell lysate in 85 μL (final volume) ddH2O. For the positive blank group, adding 2 μL HeLA nuclear extract first, following by adding 83 μL ddH2O. In the negative blank group, by adding 2 μL Trichostatin A and 83 μL ddH2O. • b) Adding 10 μL 10× buffer to each well. • c) Adding 5 μL HDAC fluorogenic substrate to each well, and adding the drug to make the final concentration reach the set concentration, mixing well, and incubating at 37° C. for 30 min. • d) Adding 10 μL lysine developer, mixing well, then stopping the reaction, incubating for 30 min at 37° C. • e) Detecting the fluorescence value by the microplate reader (condition: emission wavelength/excitation wavelength is 350-380/440-460 nm).

For `CCN(CC)CCNC(=O)Nc1ccc(C(=O)Nc2c3c(cc4c2C(C)(C)CCC4(C)C)C(C)(C)CCC3(C)C)cc1` [OAB-12, 1-[2-(N,N-diethylamino)]ethyl-3-{4-[(1,1,4,4,5,5,8,8-octamethyl-1,2,3,4,5,6,7,8-octahydro-9-anthryl)carbamoyl]phenyl} urea], the inhibition at 10 µM in data set [1] (setting [5]) was determined as 43.7 ± 3.98%. Besides, in the data set on RXR, the “Relative activity (RXR)” value is recorded as 0.85, the “Flu (firefly luciferase signal)” value came to 4013, the Flu/Rlu is recorded as 1.49 and the “Rlu (Renilla luciferase signal)” value was 2686. Further, the inhibition at 0.01 µM in data set [2] (setting [6]) came to 8.96 ± 1.45%. Moreover, the inhibition at 0.1 µM in data set [2] (setting [7]) was 11.8 ± 1.33%. Also, the inhibition at 1 µM in data set [2] (setting [8]) stood at 73 ± 1.31%. Further, in data set [2] (setting [9]), the inhibition at 10 µM stood at 78.94 ± 0.42%. In addition, the “Inhibitive rate of HDAC activity of A549 cells” value (from here on “Inhibitive rate”) in the data set with HDAC worked out at 4.17%.

By IC50 is commonly meant the point on the concentration scale where inhibition reaches its midpoint. With `C=C(c1ccc(C(=O)O)cc1)c1cc2c(cc1C)C(C)(C)CCC2(C)C` [BEXA, bexarotene, reference compound], in data set [1] (HuT-102, read-out: Inhibitive rate (%) against Hut102 cells), the inhibition at 10 µM worked out at 6.41 ± 4.1%. Besides, the “Nesting ability vs model group” value with APP/PS1 transgenic mice [3] is listed as “significantly increased”. In addition, the “Escape latency vs model group” value with APP/PS1 transgenic mice [4] (third and fourth days of training) is given as “significantly reduced”. In the data set with APP/PS1 transgenic mice [4] (probe test), the “Number of times traversing the safe platform vs model group” value is “significantly increased”, the “Percentage of the swimming distance in the target quadrant vs model group” value is recorded as “significantly increased” and the “Swimming time in the target quadrant vs model group” value is given as “significantly increased”. Also, the IC50 in data set [2] (Homo sapiens, HL-60, 48 h) turned out to be 6.31 ± 0.7 µM. The inhibition at 10 µM in data set [2] (Homo sapiens, HL-60, 48 h, read-out: Inhibitive rate (%) against HL60 cells) worked out at 4 ± 1.14%. Moreover, in data set [2] (setting [10]), the inhibition at 0.01 µM worked out at 16.5 ± 1.66%, the inhibition at 0.1 µM amounted to 15.1 ± 1.44%, the inhibition at 1 µM came to 65.5 ± 1.72% and the inhibition at 10 µM is 80.88 ± 0.63%.

The melting point is the temperature of the solid-liquid transition. Consider `CC1(C)CCC(C)(C)c2c1cc1c(c2NC(=O)c2ccc(NC(=O)NCCO)cc2)C(C)(C)CCC1(C)C` [OAB-17, 1-(2-hydroxy) ethyl-3-{4-[(1,1,4,4,5,5,8,8-octamethyl-1,2,3,4,5,6,7,8-octahydro-9-anthryl)carbamoyl]phenyl} urea], for which the melting point lay within 284 to 287 °C. The inhibition at 10 µM in data set [1] (setting [5]) was 9.22 ± 1.29%. The inhibition at 10 µM in data set [2] (setting [11]) was 33.6 ± 0.7%.

For the compound `CN(C)CCNC(=O)Nc1ccc(C(=O)Nc2c3c(cc4c2C(C)(C)CCC4(C)C)C(C)(C)CCC3(C)C)cc1` [OAB-13, 1-[2-(N,N-dimethylamino)]ethyl-3-{4-[(1,1,4,4,5,5,8,8-octamethyl-1,2,3,4,5,6,7,8-octahydro-9-anthryl)carbamoyl]phenyl} urea], in data set [1] (setting [5]), the inhibition at 10 µM was found to be 39.8 ± 0.81%. In addition, in the data set on RXR, the “Relative activity (RXR)” value was found to be 1.11, the “Flu (firefly luciferase signal)” value is recorded as 76228, the Flu/Rlu turned out to be 1.95 and the “Rlu (Renilla luciferase signal)” value was determined as 39025. For the same compound, the inhibition at 0.01 µM in data set [2] (setting [6]) worked out at 12.6 ± 0.7%. In addition, the inhibition at 0.1 µM in data set [2] (setting [7]) came to 11.4 ± 0.88%. The inhibition at 1 µM in data set [2] (setting [8]) turned out to be 53.3 ± 1.22%. Also, the inhibition at 10 µM in data set [2] (setting [9]) amounted to 79.93 ± 0.16%. Further, the IC50 in data set [2] (setting [12]) was under 10 µM. In addition, in data set [2] (MTT, 48 h), the IC50 came out at 6.65 ± 2.93 µM. The “Inhibitive rate” value in the data set on HDAC is on record as 3.19%.

With `CC1(C)CCC(C)(C)c2c1cc1c(c2NC(=O)c2ccc(C(=O)NCCN)cc2)C(C)(C)CCC1(C)C` [OAA-6, N-(2-amino) ethyl-4-[(1,1,4,4,5,5,8,8-octamethyl-1,2,3,4,5,6,7,8-octahydro-9-anthryl)carbamoyl] benzamide], the inhibition at 10 µM in data set [1] (setting [5]) amounted to 23.9 ± 1.03%. Further, in the data set with RXR, the “Relative activity (RXR)” value stood at 1.47, the “Flu (firefly luciferase signal)” value turned out to be 452598, the Flu/Rlu is listed as 2.59 and the “Rlu (Renilla luciferase signal)” value was 174827. Moreover, the inhibition at 0.01 µM in data set [2] (setting [6]) came to 1.2 ± 0.27%. For the same compound, the inhibition at 0.1 µM in data set [2] (setting [7]) was found to be 13.4 ± 1.5%. The inhibition at 1 µM in data set [2] (setting [8]) came to 76.73 ± 0.07%. Further, the inhibition at 10 µM in data set [2] (setting [9]) is 79.74 ± 0.46%. Moreover, the inhibition at 10 µM in data set [2] (setting [11]) is over 50%. Also, the IC50 in data set [2] (setting [12]) is under 10 µM. For the same compound, the 50% inhibitory concentration (IC50) in data set [2] (MTT, 48 h) came to 5.63 ± 1.14 µM. In addition, the “Inhibitive rate” value in the data set on HDAC is recorded as −11.07%.
